Drawing on ChEMBL document CHEMBL1136570, “Synthesis and dopamine transporter affinity of chiral 1-[2-[bis(4-fluorophenyl)methoxy]ethyl]-4-(2-hydroxypropyl)piperazines as potential cocaine abuse therapeutic agents” (Bioorg Med Chem Lett, 2003), this text covers Ki and Ratio for 17 molecules.

In general, Ki refers to a dissociation constant, usually derived from enzyme kinetics or from competition with a known ligand.

In test [1] the target is Sodium-dependent serotonin transporter (Rattus norvegicus, UniProt P31652). The experiment in a line: Binding affinity for serotonin transporter (SERT).
For test [2], the target named is Sodium-dependent dopamine transporter (Rattus norvegicus, UniProt P23977). Nature of the test: Binding affinity for dopamine transporter (DAT).
The target in test [3] is Monoamine transporters; serotonin & dopamine (Rattus norvegicus) (UniProt P31652+P23977). The experiment in a line: Selectivity expressed as ratio of affinity for SERT/DAT. The class given is protein assay.
Sequence of Monoamine transporters; serotonin & dopamine (Rattus norvegicus) (P23977 whole entry, looked up): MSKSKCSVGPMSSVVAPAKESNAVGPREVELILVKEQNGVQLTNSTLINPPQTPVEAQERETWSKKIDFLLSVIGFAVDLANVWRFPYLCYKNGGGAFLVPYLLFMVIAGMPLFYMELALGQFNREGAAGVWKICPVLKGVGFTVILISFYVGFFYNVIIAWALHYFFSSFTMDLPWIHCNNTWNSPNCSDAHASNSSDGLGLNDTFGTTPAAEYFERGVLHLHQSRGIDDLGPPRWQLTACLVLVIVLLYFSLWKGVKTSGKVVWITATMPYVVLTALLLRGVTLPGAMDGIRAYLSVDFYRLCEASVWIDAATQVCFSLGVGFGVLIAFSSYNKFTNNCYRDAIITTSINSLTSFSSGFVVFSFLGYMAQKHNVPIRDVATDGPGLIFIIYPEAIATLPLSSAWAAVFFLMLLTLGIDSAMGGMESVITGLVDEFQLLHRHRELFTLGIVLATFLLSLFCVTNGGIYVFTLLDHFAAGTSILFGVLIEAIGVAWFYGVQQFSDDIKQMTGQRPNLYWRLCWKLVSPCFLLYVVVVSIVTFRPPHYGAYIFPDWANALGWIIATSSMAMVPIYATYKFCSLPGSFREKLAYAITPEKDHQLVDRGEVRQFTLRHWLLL
Sequence of Monoamine transporters; serotonin & dopamine (Rattus norvegicus) (P31652 whole entry, looked up): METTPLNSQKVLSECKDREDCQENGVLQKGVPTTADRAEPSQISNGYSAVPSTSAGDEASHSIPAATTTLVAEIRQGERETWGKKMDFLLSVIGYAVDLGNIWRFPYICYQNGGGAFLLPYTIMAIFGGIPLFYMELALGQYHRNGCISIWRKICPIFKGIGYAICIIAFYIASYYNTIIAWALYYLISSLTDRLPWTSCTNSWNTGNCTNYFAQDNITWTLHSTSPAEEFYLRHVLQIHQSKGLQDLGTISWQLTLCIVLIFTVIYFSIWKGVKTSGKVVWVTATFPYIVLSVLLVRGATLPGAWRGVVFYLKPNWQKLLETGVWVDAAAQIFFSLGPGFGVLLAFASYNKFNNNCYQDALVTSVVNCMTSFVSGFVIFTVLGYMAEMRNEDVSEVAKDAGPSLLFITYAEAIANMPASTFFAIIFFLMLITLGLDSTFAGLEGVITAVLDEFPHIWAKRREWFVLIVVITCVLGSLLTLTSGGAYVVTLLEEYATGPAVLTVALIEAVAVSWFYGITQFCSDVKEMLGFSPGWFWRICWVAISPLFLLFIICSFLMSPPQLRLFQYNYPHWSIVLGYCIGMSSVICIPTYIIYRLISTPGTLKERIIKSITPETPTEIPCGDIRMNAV

Sequence of Sodium-dependent serotonin transporter (P31652 whole entry): as the sequence (P31652 whole entry, looked up) above
Sequence of Sodium-dependent dopamine transporter (P23977 whole entry): as the sequence (P23977 whole entry, looked up) above

For the molecule `CC(O)(CN1CCN(CCOC(c2ccc(F)cc2)c2ccc(F)cc2)CC1)c1ccccc1` (racemic), the Ki in test [1] worked out at 298 nM; in test [2] it was 20 nM. Besides, in test [3], the Ratio was found to be 15.

On to `O[C@H](Cc1ccccc1)CN1CCN(CCOC(c2ccc(F)cc2)c2ccc(F)cc2)CC1`, for which the Ratio in test [3] stood at 14.

For `C[C@@H](O)CN1CCN(CCOC(c2ccccc2)c2ccccc2)CC1`, the figures for the Ki in test [1] and in test [2] were 12900 nM and 44 nM, respectively. Besides, in test [3], the Ratio was determined as 293.

Turning to `C[C@H](O)CN1CCN(CCOC(c2ccc(F)cc2)c2ccc(F)cc2)CC1`, the Ki in test [1] is 981 nM; in test [2], 23 nM. Further, in test [3], the Ratio amounted to 43.

As for `O[C@@H](Cc1ccccc1)CN1CCN(CCOC(c2ccc(F)cc2)c2ccc(F)cc2)CC1`, the Ratio in test [3] was found to be 307.

Take `C[C@](O)(CN1CCN(CCOC(c2ccc(F)cc2)c2ccc(F)cc2)CC1)c1ccccc1`: the figures for the Ki in test [1] and in test [2] were 520 nM and 140 nM, respectively. For the same molecule, the Ratio in test [3] came to 4.

For the molecule `C[C@@](O)(CN1CCN(CCOC(c2ccc(F)cc2)c2ccc(F)cc2)CC1)c1ccccc1`, the Ki was found to be 281 nM in test [1] and 5.6 nM in test [2]. Moreover, the Ratio in test [3] turned out to be 50.

In the case of `O[C@H](Cc1ccccc1)CN1CCN(CCOC(c2ccccc2)c2ccccc2)CC1`, the Ratio in test [3] is 73.

Take `CCN1CCN(CCOC(c2ccc(F)cc2)c2ccc(F)cc2)CC1`: the Ki in test [1] turned out to be 2090 nM; in test [2], 34 nM. In addition, the Ratio in test [3] amounted to 61.

As for `C[C@H](O)[C@@H](c1ccccc1)N1CCN(CCOC(c2ccc(F)cc2)c2ccc(F)cc2)CC1`, the results for the Ki in test [1] and in test [2] were 583 nM and 36 nM, respectively. Also, in test [3], the Ratio is 16.

Regarding `CCCN1CCN(CCOC(c2ccc(F)cc2)c2ccc(F)cc2)CC1`, the results for the Ki in test [1] and in test [2] were 888 nM and 40 nM, respectively. Also, in test [3], the Ratio worked out at 22.

As for `O[C@@H](Cc1ccccc1)CN1CCN(CCOC(c2ccccc2)c2ccccc2)CC1`, in test [3], the Ratio was found to be 939.

Turning to `OC(Cc1ccccc1)CN1CCN(CCOC(c2ccc(F)cc2)c2ccc(F)cc2)CC1` (racemic), in test [3], the Ratio worked out at 54.

As for `C[C@H](O)CN1CCN(CCOC(c2ccccc2)c2ccccc2)CC1`, the figures for the Ki in test [1] and in test [2] were 10400 nM and 48 nM, respectively. In addition, the Ratio in test [3] was found to be 217.

Take `C[C@@H](O)CN1CCN(CCOC(c2ccc(F)cc2)c2ccc(F)cc2)CC1`: the results for the Ki in test [1] and in test [2] were 588 nM and 76 nM, respectively. For the same molecule, the Ratio in test [3] amounted to 8.

For the molecule `C[C@@H](O)[C@H](c1ccccc1)N1CCN(CCOC(c2ccc(F)cc2)c2ccc(F)cc2)CC1`, the results for the Ki in test [1] and in test [2] were 565 nM and 13 nM, respectively. The Ratio in test [3] was found to be 43.

With `C=CCN1CCN(CCOC(c2ccc(F)cc2)c2ccc(F)cc2)CC1`, the Ki was determined as 1650 nM in test [1] and 65 nM in test [2]. Besides, the Ratio in test [3] stood at 25.
